# Laboratory results: patent US20220211860A1, “PEPTIDE DERIVATIVES AND CONJUGATES THEREOF FOR TREATING CANCER” (priority 2019, published 2022)
# Read-outs that look alike come from different tables or passages of the source. Non-standard residues stand in square brackets, D forms with d. Residues, ends and D or L forms follow the SMILES beside them. *: point of attachment. Dolaproine = CO[C@@H]([C@@H]1CCCN1)[C@@H](C)C(=O)O; Dil = CC[C@H](C)[C@H](NC)[C@@H](CC(=O)O)OC; X1 = C[C@@H](N*)[C@@H](O)c1ccccc1; NMeV = CN[C@H](C(=O)O)C(C)C
# Assays:
# [1] = tested on: MDA-MB-231; conditions: read-out: IC50 inhibition of cell growth
# Protocol: (§2) The IC50 values (μM) were estimated from concentration-response curves using non-linear regression for inhibition of cell growth. Data are expressed as mean±SD from at least three independent experiments, each in triplicate. Statistical analysis was performed using a two-way ANOVA (* p<0.05, the IC50 for each compared with that of their corresponding parent peptide for the same cell line).
# [2] = tested on: MCF-7; conditions: read-out: IC50 inhibition of cell growth
# Protocol: as §2
# [3] = in vitro; conditions: human, plasma, half-life (T1/2)
# Protocol: As described herein in vitro metabolic stability in plasma is defined as the susceptibility of a chemical compound to biotransformation in plasma, and is expressed as in vitro half-life (T1/2).
# (B) The metabolic stability of LHRH peptide derivatives examined in human plasma and quantified by Liquid Chromatography-Mass-Spectrometry (LC-MS) in a time dependent manner. […] Statistical analysis was performed using a one-way ANOVA followed by Dunnett's post-hoc test. Error bars are standard deviations (STDV), p<0.05, n=9 (3 independent experiments each performed in triplicate).
# [4] = tested on: SK-BR-3; conditions: read-out: IC50 inhibition of cell growth
# Protocol: as §2
# [5] = tested on: SKOV-3; conditions: read-out: IC50 inhibition of cell growth
# Protocol: as §2
# [6] = tested on: HMEC; assay: MTT cytotoxicity assay, HMEC normal breast cells; type: cell-based; conditions: 72 h
# Protocol: (§1) FIG. 4A to 4E: The cytotoxic activity of the peptide conjugate LD5-mc-vc-PABC-MMAE (LM) in comparison to MMAE was assessed in MDA-MB-231 (TNBC cell model) versus HMEC and MCF-10A (normal breast cells) and SKOV-3 (low LHRH-R expressing cell model), by MTT assay after incubating cells with compounds in serial dilution for 72 h. (A) The relative cellular viability was assessed in comparison to PBS-treated negative control group and IC50 value (nM) was calculated by non-linear regression (curve fit) for HMEC and MCF-10A (normal breast cells) and MDA-MB-231 (LHRH-R positive, TNBC cell model) and SKOV-3 (LHRH-R low expressing cells). (B) The cell viability in LD5-me-vc-PABC-MMAE (LM) was assessed in HMEC as normal breast cell line in comparison to MMAE by two-way ANOVA followed by Sidak's multiple comparisons test (****p<0.0001). (C) The cell viability in LD5-mc-vc-PABC-MMAE (LM) was assessed in MCF-10A as normal breast cell line in comparison to MMAE by two-way ANOVA followed by Sidak's multiple comparisons test (***p<0.001, **p<0.01, *p<0.05). (D) The cell viability in LD5-me-vc-PABC-MMAE (LM) was assessed in MDA-MB-231 (TNBC cell model) in comparison to MMAE by two-way ANOVA followed by Sidak's multiple comparisons test (****p<0.0001). […]
# [7] = tested on: SKOV-3; assay: MTT cytotoxicity assay, SKOV-3 (low LHRH-R expressing); type: cell-based; conditions: SKOV-3, 72 h
# Protocol: as §1
# [8] = tested on: MCF-10A; assay: MTT cytotoxicity assay, MCF-10A normal breast cells; type: cell-based; conditions: 72 h
# Protocol: as §1
# [9] = tested on: α-tubulin polymerisation; assay: α-tubulin immunostaining in TNBC and normal breast cells; type: cell-based; conditions: TNBC cells and normal breast cells, 1 µM, 18 h
# Protocol: FIGS. 8A and 8B: The effect of MMAE and LD5-me-vc-PABC-MMAE (LM) on α-tubulin polymerization. (A) MDA-MB-231 (TNBC cell model) and normal breast cells (HMEC and MCF-10A) were treated with free MMAE and LM at 1 μM and PBS (control) followed by immunostaining of α-tubulin with primary and secondary antibodies. The α-tubulin signals were detected by LEICA SPE2 confocal LSM. (B) The α-tubulin signal intensity was measured by Fiji J software in normal breast cells (HMEC and MCF-10A) and MDA-MB-231. ****p<0.0001 is the significance in the signal intensity in each cell line treated with PBS and LM in comparison to MMAE-treated cells. ####p<0.0001 is the significance of the α-tubulin signal intensity in MDA-MB-231 cells treated with LM in comparison to MCF-10A and HMEC cells. […] Statistical analysis was made in Prism by two-way ANOVA followed by Tukey's multiple comparisons test. Error bars are standard deviations (STDV), n=8 (3 independent repeats).
# The intracellular effects of MMAE on α-tubulin polymerisation were examined using α-tubulin immunostaining in TNBC cells (MDA-MB-231) and normal breast cells (MCF-10A and HMEC) treated with MMAE and MMAE conjugated with LD5 (LD5-mc-vc-PABC-MMAE). TNBC cells and normal breast cells were fixed after incubating with […] of MMAE and LD5-mc-vc-PABC-MMAE for 18 h along with PBS as a control. […]
# [10] = tested on: mice; assay: MTD of brentuximab vedotin in mice (comparison); type: in vivo
# Text: Therefore, the MTD was not reached at this dose. With the corresponding ADCs bearing MMAE the MTD has been considerably lower.
# [11] = tested on: mice; conditions: cited from earlier work
Compound,IC50 [1],IC50 [2],half-life [3],IC50 [4],IC50 [5],IC50 [6],IC50 [7],IC50 [8],α-tubulin formation compared to PBS control [9],MTD expressed as equivalent of LHRHD-(mc-vc-PABC)-MMAE [10],MTD [11]
"CCNC(=O)[C@@H]1CCCN1C(=O)[C@H](CCCNC(=N)N)NC(=O)[C@H](CC(C)C)NC(=O)[C@@H](CCCCN)NC(=O)[C@H](Cc1ccc(O)cc1)NC(=O)[C@H](CO)NC(=O)[C@H](Cc1c[nH]c2ccccc12)NC(=O)[C@H](Cc1c[nH]cn1)NC(=O)[C@@H](N)CCC(N)=O [LD4, Gln-His-Trp-Ser-Tyr-D-Lys-Leu-Arg-Pro-NHCH2CH3] (H-QHWSY[dK]LRP-NHEt)",36.2 ± 0.8 µM,51.3 ± 3.1 µM,~4.28 h,31.2 ± 4.8 µM,> 100 µM,–,–,–,–,–,–
"CCNC(=O)[C@@H]1CCCN1C(=O)[C@H](CCCNC(=N)N)NC(=O)[C@H](CC(C)C)NC(=O)[C@@H](CCCCN)NC(=O)[C@H](Cc1ccc(O)cc1)NC(=O)[C@H](CO)NC(=O)[C@H](Cc1c[nH]c2ccccc12)NC(=O)[C@H](Cc1c[nH]cn1)NC(=O)[C@@H]1CCC(=O)N1 [LD5, pGlu-His-Trp-Ser-Tyr-D-Lys-Leu-Arg-Pro-NHCH2CH3]",38.1 ± 1.4 µM,47.6 ± 5.4 µM,~6.08 h,33.5 ± 2.5 µM,> 100 µM,–,–,–,–,–,–
"CCNC(=O)[C@@H]1CCCN1C(=O)[C@H](CCCNC(=N)N)NC(=O)[C@H](CC(C)C)NC(=O)[C@@H](CCCCNC(=O)CCCCCN)NC(=O)[C@H](Cc1ccc(O)cc1)NC(=O)[C@H](CO)NC(=O)[C@H](Cc1c[nH]c2ccccc12)NC(=O)[C@H](Cc1c[nH]cn1)NC(=O)[C@@H]1CCC(=O)N1 [LD6, pGlu-His-Trp-Ser-Tyr-D-Lys(Ahx)-Leu-Arg-Pro-NHCH2CH3]",33.2 ± 2.5 µM,49.2 ± 2.1 µM,~5.15 h,29.7 ± 1.1 µM,> 100 µM,–,–,–,–,–,–
"CC(C)C[C@H](NC(=O)CNC(=O)[C@H](Cc1ccc(O)cc1)NC(=O)[C@H](CO)NC(=O)[C@H](Cc1c[nH]c2ccccc12)NC(=O)[C@H](Cc1c[nH]cn1)NC(=O)[C@@H]1CCC(=O)N1)C(=O)N[C@@H](CCCNC(=N)N)C(=O)N1CCC[C@H]1C(=O)NCC(N)=O [LHRH, pGlu-His-Trp-Ser-Tyr-Gly-Leu-Arg-Pro-Gly-NH2, reference compound]",> 100 µM,> 100 µM,~0.167 h,> 100 µM,> 100 µM,–,–,–,–,–,–
"CC[C@H](C)[C@@H]([C@@H](CC(=O)N1CCC[C@H]1[C@H](OC)[C@@H](C)C(=O)N[C@H](C)[C@@H](O)c1ccccc1)OC)N(C)C(=O)[C@@H](NC(=O)[C@@H](NC)C(C)C)C(C)C [MMAE, monomethyl auristatin E] (H-[NMeV]V[Dil][Dolaproine]-X1)",–,–,–,–,–,0.00011 µM,0.03 nM,0.00083 µM,dramatic decrease in α-tubulin formation,–,–
"CC(C)C[C@H](NC(=O)[C@@H](CCCCN)NC(=O)[C@H](Cc1ccc(O)cc1)NC(=O)[C@H](CO)NC(=O)[C@H](Cc1c[nH]c2ccccc12)NC(=O)[C@H](Cc1cnc[nH]1)NC(=O)[C@@H]1CCC(=O)N1)C(=O)N[C@@H](CCCNC(=N)N)C(=O)N1CCC[C@H]1C(=O)NCC(N)=O [[k^6] LHRH, reference compound]",–,–,~0.65 h,–,–,–,–,–,–,–,–
"CC(C)C[C@H](NC(=O)[C@@H](Cc1c[nH]c2ccccc12)NC(=O)[C@H](Cc1ccc(O)cc1)NC(=O)[C@H](CO)NC(=O)[C@H](Cc1c[nH]c2ccccc12)NC(=O)[C@H](Cc1c[nH]cn1)NC(=O)[C@@H]1CCC(=O)N1)C(=O)N[C@@H](CCCNC(=N)N)C(=O)N1CCC[C@H]1C(=O)NCC(N)=O [triptorelin, reference compound]",68.1 ± 8.1 µM,79.4 ± 5.3 µM,~0.317 h,81.2 ± 7.2 µM,> 100 µM,–,–,–,–,–,–
brentuximab vedotin: ADC in the clinic containing MMAE,–,–,–,–,–,–,–,–,–,approximately 70 mg/kg,30 to 40 mg/kg
